Assay results from the CheMixHub viscosity set.

Assay: xn = mol fraction of the nth substance listed

CCCC(C)O (stereo not given) + CC(=O)N(C)C
viscosity [mPa·s], 100 kPa
Details	298.15 K	313.15 K
x2 = 0.0565	2.917	1.821
x2 = 0.1029	2.592	1.693
x2 = 0.2137	2.057	1.432
x2 = 0.3057	1.757	1.276
x2 = 0.409	1.528	1.145
x2 = 0.5031	1.387	1.053
x2 = 0.6045	1.255	0.971
x2 = 0.7015	1.158	0.904
x2 = 0.7996	1.068	0.842
x2 = 0.9005	0.987	0.784
x2 = 0.9581	0.943	–

CC(CC(C)(C)C)CC(C)(C)CC(C)(C)C (stereo not given) + Cc1ccccc1
viscosity [mPa·s], 100 kPa
Details	x2 = 0.4498	x2 = 0.7104	x2 = 0.8804
298.15 K	1.499	0.946	0.684
313.15 K	1.196	0.78	0.58

CCCCNCCCC + ClC(Cl)(Cl)Cl
298.15 K, 101.3 kPa
Details	viscosity [mPa·s]
x1 = 0.0922	0.898
x1 = 0.173	0.894
x1 = 0.3108	0.887
x1 = 0.4089	0.881
x1 = 0.5011	0.877
x1 = 0.5964	0.872
x1 = 0.7077	0.864
x1 = 0.7916	0.848
x1 = 0.9034	0.823

CCCC(C)O (stereo not given) + CC(C)OC(C)C
viscosity [mPa·s], 100 kPa
Details	x2 = 0.0801	x2 = 0.1597	x2 = 0.2402	x2 = 0.3503	x2 = 0.4399	x2 = 0.5598	x2 = 0.6493	x2 = 0.7372	x2 = 0.8487	x2 = 0.9379
293.15 K	3.43	2.94	2.52	2.08	1.76	1.386	1.13	0.9	0.64	0.45
298.15 K	2.87	2.44	2.1	1.74	1.48	1.176	0.969	0.783	0.57	0.42
303.15 K	2.42	2.06	1.78	1.49	1.286	1.04	0.864	0.705	0.518	0.389
308.15 K	2.04	1.74	1.5	1.26	1.09	0.89	0.75	0.62	0.47	0.36
313.15 K	1.71	1.45	1.26	1.06	0.922	0.755	0.64	0.536	0.414	0.33
318.15 K	1.42	1.2	1.05	0.89	0.78	0.642	0.547	0.467	0.375	0.306
323.15 K	1.19	1.02	0.89	0.76	0.667	0.554	0.477	0.41	0.33	0.28

CCCCNCCCC + CC(C)CO
viscosity [mPa·s], 101.33 kPa
Details	298.15 K	308.15 K	318.15 K
x1 = 0.0659	3.147	2.311	1.743
x1 = 0.0962	3.01	2.218	1.683
x1 = 0.1558	2.74	2.038	1.562
x1 = 0.1967	2.557	1.918	1.482
x1 = 0.2681	2.25	1.708	1.336
x1 = 0.3132	2.076	1.591	1.256
x1 = 0.3956	1.791	1.394	1.118
x1 = 0.4699	1.576	1.245	1.011
x1 = 0.5552	1.379	1.11	0.914
x1 = 0.6322	1.234	1.007	0.838
x1 = 0.7567	1.05	0.874	0.743
x1 = 0.8163	0.985	0.824	0.708
x1 = 0.8647	0.93	0.787	0.678
x1 = 0.8978	0.901	0.766	0.662
x1 = 0.9162	0.882	0.751	0.651

COCCO + CCCCCCCO
viscosity [mPa·s], 101 kPa
Details	x1 = 0.1451	x1 = 0.2763	x1 = 0.3956	x1 = 0.5044	x1 = 0.6043	x1 = 0.6961	x1 = 0.7808	x1 = 0.8593	x1 = 0.9322
298.15 K	4.92	3.963	3.336	2.889	2.551	2.252	2.054	1.852	1.79
308.15 K	3.116	2.561	2.23	1.936	1.753	1.592	1.489	1.341	1.247
318.15 K	2.496	2.203	1.906	1.611	1.487	1.455	1.465	1.142	1.095

CC(CC(C)(C)C)CC(C)(C)CC(C)(C)C (stereo not given) + CCCCCCCCCCCC
Details	viscosity [mPa·s]
323.15 K, 100 kPa, x1 = 0.279	1.09

C[Si](C)(C)O[Si](C)(C)O[Si](C)(C)O[Si](C)(C)O[Si](C)(C)O[Si](C)(C)C + C[Si](C)(C)O[Si](C)(C)O[Si](C)(C)O[Si](C)(C)C
Details	viscosity [mPa·s]
298.15 K, 101 kPa, x1 = 0.413	1.738

CCCCNCCCC + ClCCl
298.15 K, 101.3 kPa
Details	viscosity [mPa·s]
x1 = 0.0995	0.494
x1 = 0.2125	0.55
x1 = 0.299	0.59
x1 = 0.3913	0.633
x1 = 0.4338	0.655
x1 = 0.6097	0.719
x1 = 0.6782	0.74
x1 = 0.807	0.768
x1 = 0.8865	0.787

N#C[S-].[Na+] + CO
viscosity [mPa·s], 101.3 kPa
Details	293.15 K	298.15 K	303.15 K	308.15 K	313.15 K	318.15 K	323.15 K
x1 = 0.003649	0.656	0.608	0.563	0.526	0.491	0.46	0.432
x1 = 0.01456	0.819	0.753	0.695	0.643	0.597	0.556	0.518
x1 = 0.03159	0.947	0.871	0.803	0.743	0.689	0.646	0.602
x1 = 0.0463	1.117	1.027	0.947	0.873	0.811	0.753	0.703
x1 = 0.05341	1.197	1.101	1.011	0.932	0.861	0.798	0.742
x1 = 0.07204	1.409	1.286	1.176	1.086	1.011	0.923	0.859
x1 = 0.08868	1.716	1.552	1.416	1.293	1.186	1.092	1.009
x1 = 0.09954	1.915	1.711	1.514	1.38	1.261	1.16	1.068
x1 = 0.1138	2.253	1.996	1.793	1.624	1.477	1.353	1.239
x1 = 0.1229	2.36	2.109	1.904	1.732	1.565	1.426	1.304
x1 = 0.1415	2.922	2.58	2.295	2.055	1.854	1.683	1.535

CC(CC(C)(C)C)CC(C)(C)CC(C)(C)C (stereo not given) + CCCCCCCCCCCCC
viscosity [mPa·s], 100 kPa
Details	x2 = 0.125	x2 = 0.25	x2 = 0.375	x2 = 0.5	x2 = 0.625	x2 = 0.75	x2 = 0.875
293.15 K	3.28	2.98	2.69	2.49	2.29	2.14	1.98
303.15 K	2.65	2.39	2.18	2.07	1.89	1.76	1.64
313.15 K	2.15	1.96	1.79	1.71	1.57	1.47	1.39
323.15 K	1.79	1.63	1.51	1.43	1.33	1.25	1.18

COCCO + CC(=O)N(C)C
viscosity [mPa·s], 101 kPa
Details	298.15 K	308.15 K	318.15 K
x2 = 0.0301	1.535	1.254	1.048
x2 = 0.06	1.528	1.25	1.046
x2 = 0.0871	1.52	1.247	1.045
x2 = 0.125	1.507	1.239	1.041
x2 = 0.1767	1.488	1.228	1.034
x2 = 0.225	1.466	1.214	1.026
x2 = 0.2902	1.432	1.192	1.011
x2 = 0.364	1.39	1.164	0.991
x2 = 0.4602	1.329	1.122	0.96
x2 = 0.52	1.289	1.092	0.938
x2 = 0.5611	1.26	1.07	0.921
x2 = 0.62	1.216	1.038	0.897
x2 = 0.6654	1.181	1.011	0.876
x2 = 0.725	1.135	0.977	0.849
x2 = 0.7732	1.099	0.949	0.827
x2 = 0.825	1.059	0.919	0.803
x2 = 0.8847	1.014	0.885	0.775
x2 = 0.9501	0.965	0.847	0.746

C[N+](C)(C)C[C@H](O)CC(=O)[O-] + O=C(O)CC(O)(CC(=O)O)C(=O)O
Details	viscosity [mPa·s]
298.15 K, 101.33 kPa, x2 = 0.4	896.5

COCCO + CCC(C)O
viscosity [mPa·s]
Details	298.15 K	303.15 K	313.15 K
100 kPa, x1 = 0.1007	2.54	–	1.61
100 kPa, x1 = 0.202	2.2	–	1.46
100 kPa, x1 = 0.3022	1.98	–	1.36
100 kPa, x1 = 0.4018	1.83	–	1.29
100 kPa, x1 = 0.5022	1.73	–	1.24
100 kPa, x1 = 0.6017	1.66	–	1.21
100 kPa, x1 = 0.701	1.61	–	1.19
100 kPa, x1 = 0.8006	1.58	–	1.18
100 kPa, x1 = 0.9006	1.56	–	1.18
101.3 kPa, x1 = 0.1228	–	2.584	–
101.3 kPa, x1 = 0.209	–	2.261	–
101.3 kPa, x1 = 0.3377	–	1.898	–
101.3 kPa, x1 = 0.428	–	1.714	–
101.3 kPa, x1 = 0.5977	–	1.488	–
101.3 kPa, x1 = 0.6442	–	1.45	–
101.3 kPa, x1 = 0.7067	–	1.411	–
101.3 kPa, x1 = 0.8447	–	1.368	–
101.3 kPa, x1 = 0.9188	–	1.308	–

CCOC(=O)C(=O)OCC + C1CCOC1
viscosity [mPa·s], 101 kPa
Details	x1 = 0.0955	x1 = 0.2037	x1 = 0.3007	x1 = 0.4056	x1 = 0.513	x1 = 0.6056	x1 = 0.7083	x1 = 0.7994	x1 = 0.9082
303.15 K	0.506	0.591	0.683	0.795	0.916	1.03	1.173	1.298	1.472
313.15 K	0.453	0.529	0.607	0.698	0.801	0.893	1.006	1.107	1.237
323.15 K	0.414	0.479	0.544	0.619	0.701	0.782	0.872	0.954	1.057

[Cl-].[Li+] + CN1CCCC1=O
298.15 K, 101 kPa
Details	viscosity [mPa·s]
x1 = 0.03756	2.607
x1 = 0.03819	2.63
x1 = 0.04156	2.626
x1 = 0.07132	3.558
x1 = 0.07175	3.558
x1 = 0.07229	3.56
x1 = 0.1038	4.959
x1 = 0.1042	4.958
x1 = 0.1044	4.958

CCCCNCCCC + C1COCCO1
Details	viscosity [mPa·s]
303.15 K, 101 kPa, x1 = 0.01068	1.065

CCCCNCCCC + CCCO
viscosity [mPa·s], 101.33 kPa
Details	x1 = 0.0988	x1 = 0.1893	x1 = 0.3012	x1 = 0.4041	x1 = 0.4964	x1 = 0.59	x1 = 0.693	x1 = 0.7809	x1 = 0.8947
303.15 K	1.681	1.564	1.404	1.276	1.176	1.084	0.9942	0.9209	0.832
313.15 K	1.309	1.228	1.123	1.03	0.9494	0.8887	0.8255	0.7761	0.7157

CCCCBr + C1CCCCC1
308.15 K, 101 kPa
Details	viscosity [mPa·s]
x2 = 0.1017	0.5246
x2 = 0.2037	0.5305
x2 = 0.3038	0.5365
x2 = 0.4015	0.5458
x2 = 0.5006	0.5596
x2 = 0.5951	0.5789
x2 = 0.7004	0.6032
x2 = 0.8014	0.6338
x2 = 0.899	0.6799

CCCC(C)O (stereo not given) + O
298.15 K, 101 kPa
Details	viscosity [mPa·s]
x2 = 0.008	3.443
x2 = 0.0721	3.234
x2 = 0.0934	3.182
x2 = 0.1359	3.129
x2 = 0.1655	3.111
x2 = 0.1981	3.104
x2 = 0.2187	3.114
x2 = 0.2403	3.119
x2 = 0.255	3.125
x2 = 0.2971	3.163
